Data: patent publication US5368775A, “Corrosion control composition and method for boiler/condensate steam system” (priority 1993, dated 1994)
Read-outs that look alike come from different tables or passages of the source.

What was measured:
[1] = Decomposition of feed amine at boiler conditions from steam concentration (Table III)
Method: The effects of common boiler/condensate temperature and pressure on relatively high molecular weight amine was studied. The relatively high molecular weight amines methoxypropylamine (MOPA) and DMAPA were exposed to boiler condition and the steam concentrations of the feed amines measured. From this information the percent decomposition was calculated.

[2] = Additional testing of decomposition products of high molecular weight amines; type: physicochemical; settings: for formation from DMAPA: additional testing with DMAPA
[3] = cited from earlier work
[4] = cited from earlier work; remark: listed apart in the source
[5] = Lab scale test boiler, DMAPA feed, formation of DMA and TMA in feedwater (GC), 1,450 psig; type: physicochemical
[6] = Table I properties of amines: basicity, distribution ratios, flash point; type: physicochemical
Text: The preferred relatively high molecular weight amine of the present invention is dimethylaminopropylamine (DMAPA) or N,N-dimethyl-1,3-propanediamine. […] When DMAPA is subjected to common boiler temperatures and pressures of from 100, and preferably over 200, to 1500 psig, the DMAPA will partially decompose. The partial decomposition of DMAPA forms DMA and TMA.

[7] = Lab scale test boiler, DMAPA feed, formation of DMA and TMA in feedwater (GC), 1,450 psig; type: physicochemical; settings: for Feedwater composition: feedwater initially 200 ppm DMAPA; for Feedwater conductivity / Feedwater pH: DMAPA feed
Text: The following lab scale experiment verified the formation of DMA and TMA.
A research scale, electrically heated test boiler was charged with nitrogen sparged (a mechanical deaeration), demineralized water. The water was supplied by high pressure pump to a D-configuration stainless steel boiler having an internal volume of approximately 5 liters. Two 4000 watt Incoloy 800 resistance heaters produced a steam rate of approximately 17 lbs/hr at a steam pressure of 1,450 psig (correspond to a temperature of 593° F.).
Cycles of concentration were held at approximately 15 by controlling boiler blowdown rate to 1.1 lbs/hr. The saturated steam produced was routed back into the feed tank and mixed with the original feedwater. This follows common industry practice where for economy the maximum amount of condensate is returned to the boiler as feedwater. The feedwater initially contained 200 ppm of DMAPA (Aldrich 99%) and 1.4 ppm hydrazine for deaeration. The feedwater (to which the condensed steam was recycled) was analyzed by gas chromatography and DMA and TMA were quantitated by comparison to external standards.

[8] = Low pressure (175 psig) package boiler study of DEAE and DMAPA (Table IV); settings: for Feedwater concentration / Steam concentration: 175 psig boiler
Method: A study of the effects of a relatively low pressure boiler on DEAE and DMAPA was undertaken. The study was conducted in a 175 psig package boiler. The boiler was operated at 41 cycles with no condensate return so that the amine present in the steam could only come from the feedwater and not from the return of condensate. DEAE and DMAPA were-fed simultaneously at 50 ppm to the feedwater. The boiler was operated overnight to allow the system to equilibrate. […] The concentrations were determined by gas chromatography.

[9] = Research boiler decomposition, 200 to 600 psig (FIG. 1); type: physicochemical; settings: virtually any pressure, especially above about 200 psig
Text: Additional testing in a research boiler was undertaken at pressures of from 200 to 600 psig in 100 psig steps. The high molecular weight amines tested included DMAPA, DEAE and MOPA. The boiler system was operated at 100% condensate return at 15 cycles. Feed tank, steam and blowdown samples were taken at the end of each run and analyzed by gas chromatograph (GC).
A condensate modeling system was used to simulate the boiler runs and estimate. The theoretical steam concentration possible if no amine decomposition occurred. Using the theoretical concentration and the analytical value obtained from GC analysis, the percent decomposition was calculated and the results summarized in FIG. 1.

For `COCCCN` [MOPA, methoxypropylamine], which “stability at boiler conditions” value ([1]; 1500 psig) is on record?
Its value is “essentially stable”.

And the “% Decomposition” value ([1]; 1500 psig, feedwater 61 ppm)?
The value was 4.9%.

What about the “Steam concentration” value ([1]; 1500 psig, feedwater 61 ppm) of the same compound?
Its value is 58 ppm.

And the “% Decomposition” value ([1]; 2500 psig, feedwater 61 ppm)?
The value was 24.6%.

What about the “Steam concentration” value ([1]; 2500 psig, feedwater 61 ppm) of the same compound?
The value was 46 ppm.

What about the “decomposition at boiler conditions” value ([2]; temperature and pressure common to a typical boiler/condensate steam system) of the same compound?
Its value is “do not decompose”.

With `CC(O)CN(C)C` (centres unmarked) [dimethylisopropanol amine] as the compound, how does the Distribution ratio ([3]; at atmospheric pressure) read?
The Distribution ratio was 1.7.

Which Distribution ratio ([3]; at atmospheric pressure) does the source give for `NC1CCCCC1` [cyclohexylamine] here?
The Distribution ratio was 4.0.

With `N` [ammonia] as the compound, how does the Distribution ratio ([3]; at atmospheric pressure) read?
Its Distribution ratio is 10.0.

With `O=C=O` [carbon dioxide] as the compound, how does the Distribution ratio ([3]; depending upon temperature) read?
The Distribution ratio was no less than 100.

Which Distribution ratio ([3]; at atmospheric pressure) does the source give for `C1COCCN1` [Morpholine] here?
The Distribution ratio was 0.4.

What does the source list for `CNC` [DMA, dimethylamine]?
pKa [4]: 10.77; Distribution ratio (DR) ([4]; pressure not stated): 2-5; volatility relative to DMAPA [5]: significantly more volatile than DMAPA; Flash Pt. [6]: 60 °F; Distribution ratio ([6]; 100 psig): 2.4; Distribution ratio ([6]; 200 psig): 2.1; Distribution ratio ([6]; 600 psig): 3.3; Basicity (pKa) ([6]; single or first pKa): 10.8; Feedwater composition ([7]; 22 hrs., sample 12): 5 ppm; Feedwater composition ([7]; 46 hrs., sample 13): 11 ppm; Feedwater composition ([7]; 79 hrs., sample 14): 20 ppm; Feedwater composition ([7]; 94 hrs., sample 15): 25 ppm

With dimethylaminopropanol [DMAP] as the compound, how does the “formation from DMAPA” value [2] read?
The value was “confirmed”.

With `CN` [MA, methylamine] as the compound, how does the “formation from DMAPA” value [2] read?
The value was “confirmed”.

With `CCN(CC)CCO` [DEAE, diethylaminoethanol] as the compound, how does the “hydrothermal stability” value ([8]; lower saturation pressures of this test (175 psig boiler)) read?
The value was “hydrothermally stable”.

For `CCNCC` [DEA, diethylamine], which Distribution ratio ([4]; at 1000 psig) is on record?
The Distribution ratio was 28.

Which “Steam concentration” value ([1]; 200 psig, feedwater 106 ppm) does the source give for `CN(C)CCCN` [DMAPA, N,N-dimethyl-1,3-propanediamine] here?
Its value is 98.4 ppm.

What about the “Steam concentration” value ([1]; 600 psig, feedwater 106 ppm) of the same compound?
Its value is 78.8 ppm.

And the “Steam concentration” value ([1]; 900 psig, feedwater 106 ppm)?
The value was 68.7 ppm.

And the “Steam concentration” value ([1]; 1450 psig, feedwater 106 ppm)?
The value was 37.3 ppm.

And the “decomposition compared to MOPA” value [9]?
The value was “significantly higher than MOPA”.

What about the Feedwater concentration ([8]; time 1) of the same compound?
Its Feedwater concentration is 44 ppm.

And the Steam concentration ([8]; time 1)?
The Steam concentration was 42 ppm.

And the Feedwater concentration ([8]; time 2)?
The Feedwater concentration was 44 ppm.

And the Steam concentration ([8]; time 2)?
Its Steam concentration is 42 ppm.

What about the Feedwater concentration ([8]; time 3) of the same compound?
Its Feedwater concentration is 45 ppm.

And the Steam concentration ([8]; time 3)?
Its Steam concentration is 42 ppm.

What about the Feedwater concentration ([8]; time 4) of the same compound?
The Feedwater concentration was 44 ppm.

And the Steam concentration ([8]; time 4)?
Its Steam concentration is 42 ppm.

What about the Feedwater concentration ([8]; time 5) of the same compound?
Its Feedwater concentration is 46 ppm.

What about the Steam concentration ([8]; time 5) of the same compound?
Its Steam concentration is 42 ppm.

And the Feedwater concentration ([8]; time 6)?
Its Feedwater concentration is 44 ppm.

What about the Steam concentration ([8]; time 6) of the same compound?
Its Steam concentration is 42 ppm.

What about the Feedwater concentration ([8]; time 7) of the same compound?
Its Feedwater concentration is 38 ppm.

And the Steam concentration ([8]; time 7)?
The Steam concentration was 40 ppm.

And the “Flash Pt.” value [6]?
Its value is 84 °F.

And the “Distribution ratio” value ([6]; 100 psig)?
Its value is 1.1.

And the “Distribution ratio” value ([6]; 200 psig)?
The value was 1.9.

And the “Distribution ratio” value ([6]; 600 psig)?
The value was 2.0.

And the pKa ([6]; second of two pKa values, read-out: Basicity (pKa), second value)?
Its pKa is 8.2.

And the pKa ([6]; single or first pKa, read-out: Basicity (pKa))?
The pKa was 10.

And the “concentration of DMA and TMA with time on DMAPA addition” value ([7]; 22 to 94 hrs.)?
The value was “steadily increasing concentration of DMA and TMA with time”.

And the Feedwater conductivity ([7]; 22 hrs.)?
The Feedwater conductivity was 160 uS.

And the “Feedwater pH” value ([7]; 22 hrs.)?
The value was 10.35.

And the Feedwater conductivity ([7]; 46 hrs.)?
Its Feedwater conductivity is 195 uS.

And the “Feedwater pH” value ([7]; 46 hrs.)?
Its value is 10.40.

And the Feedwater conductivity ([7]; 79 hrs.)?
Its Feedwater conductivity is 200 uS.

And the “Feedwater pH” value ([7]; 79 hrs.)?
Its value is 10.65.

What about the Feedwater conductivity ([7]; 94 hrs.) of the same compound?
The Feedwater conductivity was 230 uS.

And the “Feedwater pH” value ([7]; 94 hrs.)?
The value was 10.35.

Which results are given for `CN(C)C` [TMA, trimethylamine]?
times more volatile than cyclohexylamine ([4]; at boiler pressures from 100 to 1500 psig): 2-5 times; volatility relative to DMAPA [5]: significantly more volatile than DMAPA; Flash Pt. [6]: 20 °F; Feedwater composition ([7]; 22 hrs., sample 12): 9 ppm; Feedwater composition ([7]; 46 hrs., sample 13): 16 ppm; Feedwater composition ([7]; 79 hrs., sample 14): 25 ppm; Feedwater composition ([7]; 94 hrs., sample 15): 32 ppm
